A word on the IC50: it is the concentration that inhibits the measured activity by half.

Molecules are shown by their SMILES.

We go through one compound from US20200317660A1, “Quinazolinone Compound and Application Thereof” (LUOXIN PHARMACEUTICAL (SHANGHAI) CO., LTD., priority 2017, published 2020).

One assay has as its target T1, PI3Kα (Homo sapiens, UniProt P42336).
T1 construct: purchased Millipore 14-602-K
The assay is described as follows: In vitro test of enzyme activity (ADP-Glo lipokinase), PI3K alpha. The assay is classed as biochemical. Conditions: 40 μM ATP, 50 μM PIP2:3PS, 120 min. In general terms: ADP-Glo turns the ADP formed in a reaction into a luminescent signal.

The target in a further assay is T2, PI3Kδ (Homo sapiens, UniProt O00329).
T2 construct: purchased Millipore 14-604-K
T2 sequence (O00329 whole entry): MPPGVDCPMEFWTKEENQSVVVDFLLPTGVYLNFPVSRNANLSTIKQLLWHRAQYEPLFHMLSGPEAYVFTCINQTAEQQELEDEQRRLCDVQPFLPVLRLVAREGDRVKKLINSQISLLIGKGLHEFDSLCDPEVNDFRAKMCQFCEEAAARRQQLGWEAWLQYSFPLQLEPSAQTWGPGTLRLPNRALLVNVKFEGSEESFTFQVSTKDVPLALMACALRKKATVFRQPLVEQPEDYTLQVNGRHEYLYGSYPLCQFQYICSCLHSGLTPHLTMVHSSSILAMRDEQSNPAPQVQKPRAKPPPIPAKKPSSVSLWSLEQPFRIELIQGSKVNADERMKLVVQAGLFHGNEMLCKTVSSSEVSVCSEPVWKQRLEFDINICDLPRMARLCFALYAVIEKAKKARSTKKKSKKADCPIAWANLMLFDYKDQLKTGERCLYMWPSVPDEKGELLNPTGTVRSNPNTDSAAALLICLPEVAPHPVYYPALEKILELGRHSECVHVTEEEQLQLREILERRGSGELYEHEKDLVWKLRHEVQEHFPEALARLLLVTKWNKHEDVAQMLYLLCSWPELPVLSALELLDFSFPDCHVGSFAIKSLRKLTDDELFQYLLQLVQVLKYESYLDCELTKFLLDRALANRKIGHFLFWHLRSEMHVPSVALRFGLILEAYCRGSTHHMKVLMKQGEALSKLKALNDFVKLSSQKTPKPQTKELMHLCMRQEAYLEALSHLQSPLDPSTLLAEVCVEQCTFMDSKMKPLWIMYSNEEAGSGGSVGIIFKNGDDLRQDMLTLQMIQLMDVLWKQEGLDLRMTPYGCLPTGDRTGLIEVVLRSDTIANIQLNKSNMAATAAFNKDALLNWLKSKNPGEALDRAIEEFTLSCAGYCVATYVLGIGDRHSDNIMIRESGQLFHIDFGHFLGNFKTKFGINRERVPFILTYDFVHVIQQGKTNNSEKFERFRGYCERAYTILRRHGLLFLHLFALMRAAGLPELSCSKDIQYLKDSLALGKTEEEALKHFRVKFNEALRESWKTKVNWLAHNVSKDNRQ
T2 sequence (P27986 whole entry partner): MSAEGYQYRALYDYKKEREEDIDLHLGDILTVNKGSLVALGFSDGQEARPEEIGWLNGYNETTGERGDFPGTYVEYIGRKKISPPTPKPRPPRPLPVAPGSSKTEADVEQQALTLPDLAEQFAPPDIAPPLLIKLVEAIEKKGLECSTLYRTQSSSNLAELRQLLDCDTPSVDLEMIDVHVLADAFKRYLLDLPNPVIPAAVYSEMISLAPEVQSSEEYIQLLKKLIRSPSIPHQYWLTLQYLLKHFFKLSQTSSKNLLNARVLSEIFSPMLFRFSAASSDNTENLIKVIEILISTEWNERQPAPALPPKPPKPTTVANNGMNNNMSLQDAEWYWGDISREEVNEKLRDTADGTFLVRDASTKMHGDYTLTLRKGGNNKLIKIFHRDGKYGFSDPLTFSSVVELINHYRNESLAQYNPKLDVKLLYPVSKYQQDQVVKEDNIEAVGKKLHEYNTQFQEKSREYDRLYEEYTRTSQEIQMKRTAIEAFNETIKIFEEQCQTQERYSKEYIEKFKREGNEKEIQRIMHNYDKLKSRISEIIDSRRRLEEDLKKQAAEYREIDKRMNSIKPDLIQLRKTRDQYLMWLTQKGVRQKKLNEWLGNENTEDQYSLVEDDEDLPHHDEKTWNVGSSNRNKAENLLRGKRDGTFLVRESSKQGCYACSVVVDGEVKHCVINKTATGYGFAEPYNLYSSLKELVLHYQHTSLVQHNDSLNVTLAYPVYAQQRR
The assay is described as follows: In vitro test of enzyme activity (ADP-Glo lipokinase), PI3K delta. The assay is classed as biochemical. Conditions: 40 μM ATP, 50 μM PIP2:3PS, 120 min.

A further assay deals with T3, PI3Kβ (Homo sapiens, UniProt P42338).
T3 construct: purchased Promega V1751
T3 sequence (P42338 whole entry): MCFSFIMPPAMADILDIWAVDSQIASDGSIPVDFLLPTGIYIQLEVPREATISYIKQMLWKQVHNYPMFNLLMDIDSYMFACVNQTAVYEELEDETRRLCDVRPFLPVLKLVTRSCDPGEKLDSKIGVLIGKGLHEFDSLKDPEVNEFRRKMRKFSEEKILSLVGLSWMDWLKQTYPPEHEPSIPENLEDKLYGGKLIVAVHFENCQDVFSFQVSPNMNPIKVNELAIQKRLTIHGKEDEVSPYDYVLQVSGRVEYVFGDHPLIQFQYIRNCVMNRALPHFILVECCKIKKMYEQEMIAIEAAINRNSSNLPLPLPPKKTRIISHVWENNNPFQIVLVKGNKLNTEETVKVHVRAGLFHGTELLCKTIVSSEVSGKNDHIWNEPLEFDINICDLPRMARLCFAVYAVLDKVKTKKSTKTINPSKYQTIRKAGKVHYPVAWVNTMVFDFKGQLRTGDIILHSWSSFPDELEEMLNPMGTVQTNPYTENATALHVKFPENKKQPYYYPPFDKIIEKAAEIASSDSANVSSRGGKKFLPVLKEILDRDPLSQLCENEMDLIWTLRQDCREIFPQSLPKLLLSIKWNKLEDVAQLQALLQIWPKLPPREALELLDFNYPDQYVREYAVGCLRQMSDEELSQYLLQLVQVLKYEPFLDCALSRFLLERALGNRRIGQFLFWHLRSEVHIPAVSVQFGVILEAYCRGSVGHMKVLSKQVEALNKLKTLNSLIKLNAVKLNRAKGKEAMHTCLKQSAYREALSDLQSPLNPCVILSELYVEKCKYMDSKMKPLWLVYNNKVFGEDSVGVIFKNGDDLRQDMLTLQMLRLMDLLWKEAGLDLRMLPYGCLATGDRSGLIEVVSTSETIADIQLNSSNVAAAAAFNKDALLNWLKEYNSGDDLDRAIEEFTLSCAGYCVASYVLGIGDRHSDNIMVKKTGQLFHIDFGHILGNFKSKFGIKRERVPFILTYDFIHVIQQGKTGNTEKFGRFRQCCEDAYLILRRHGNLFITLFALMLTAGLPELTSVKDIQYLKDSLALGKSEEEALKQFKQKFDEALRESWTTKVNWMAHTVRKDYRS
T3 sequence (P27986 whole entry partner): as the sequence (P27986 whole entry partner) above
The assay is described as follows: In vitro test of enzyme activity (ADP-Glo lipokinase), PI3K beta. The assay is classed as biochemical. The note with it: 40 μM ATP, 50 μM PIP2:3PS, 120 min.

In another assay the target is T4, PI3Kγ (Homo sapiens, UniProt P48736).
T4 construct: purchased Millipore 14-558-K
T4 sequence (P48736 whole entry): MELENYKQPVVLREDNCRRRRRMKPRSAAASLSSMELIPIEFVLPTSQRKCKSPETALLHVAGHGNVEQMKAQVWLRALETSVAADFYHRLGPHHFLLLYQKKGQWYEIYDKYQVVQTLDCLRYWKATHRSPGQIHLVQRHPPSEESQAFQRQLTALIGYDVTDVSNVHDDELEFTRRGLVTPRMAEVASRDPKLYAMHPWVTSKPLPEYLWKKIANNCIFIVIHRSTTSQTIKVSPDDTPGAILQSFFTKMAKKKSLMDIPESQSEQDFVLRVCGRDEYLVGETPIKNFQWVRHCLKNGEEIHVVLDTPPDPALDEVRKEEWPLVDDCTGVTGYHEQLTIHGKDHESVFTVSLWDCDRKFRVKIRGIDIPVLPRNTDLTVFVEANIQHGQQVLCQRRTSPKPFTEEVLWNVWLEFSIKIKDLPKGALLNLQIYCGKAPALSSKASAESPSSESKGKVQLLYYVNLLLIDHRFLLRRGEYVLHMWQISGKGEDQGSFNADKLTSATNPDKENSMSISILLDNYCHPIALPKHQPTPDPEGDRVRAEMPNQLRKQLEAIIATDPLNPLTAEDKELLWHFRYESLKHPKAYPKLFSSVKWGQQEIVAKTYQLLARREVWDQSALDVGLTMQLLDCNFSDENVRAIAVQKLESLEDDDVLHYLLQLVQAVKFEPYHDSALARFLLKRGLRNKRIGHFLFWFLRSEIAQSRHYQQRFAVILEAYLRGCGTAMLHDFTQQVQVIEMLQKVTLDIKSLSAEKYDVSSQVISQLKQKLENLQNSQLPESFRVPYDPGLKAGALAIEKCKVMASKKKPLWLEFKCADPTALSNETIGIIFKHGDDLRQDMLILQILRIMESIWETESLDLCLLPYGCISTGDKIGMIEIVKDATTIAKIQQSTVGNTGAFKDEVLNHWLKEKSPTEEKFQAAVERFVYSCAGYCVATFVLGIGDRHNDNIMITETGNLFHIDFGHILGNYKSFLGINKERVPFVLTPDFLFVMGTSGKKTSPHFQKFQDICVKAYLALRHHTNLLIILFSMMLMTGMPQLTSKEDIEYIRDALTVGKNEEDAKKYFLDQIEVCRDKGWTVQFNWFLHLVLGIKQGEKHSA
The assay is described as follows: In vitro test of enzyme activity (ADP-Glo lipokinase), PI3K gamma. The assay is classed as biochemical. The note with it: 25 μM ATP, 50 μM PIP2:3PS, 120 min.

Assay [1] relates to phosphorylation of PI3K downstream protein Akt in MCF7 cells. The assay is described as follows: In vitro test of cells activity: ELISA of Akt phosphorylation in MCF7 cells. Conditions: 2 h compound, insulin 10 μg/mL stimulation, pAkt ELISA, read-out: MCF7 Cell IC50. The assay is classed as cell-based. The procedure, abridged:
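MCF7 cells were serum-starved overnight, exposed to 10-point three-fold compound dilutions for 2 h at 37°C, then stimulated with 10 μg/mL insulin for 30 min. Lysates were assayed for phospho-Akt by ELISA.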
On the technique in general: An ELISA detects its analyte on a solid surface through an enzyme-linked reagent.

Assay [2] deals with human breast cancer BT-474 cells. The assay is described as follows: Subcutaneous xenograft tumor model of human breast cancer BT-474 cells. The assay is classed as in vivo, BALB/c nude mouse. Conditions: BT-474 xenograft, 30 mpk. The method, then: 2. In vivo drug-efficacy study
(1) BALB/c nude mouse subcutaneous xenograft tumor model of human breast cancer BT-474 cells
Human breast cancer BT-474 cells (ATCC, Manassas, Va., batch number: HTB-20) were subjected to in vitro monolayer culture, and the culture conditions were: Hybri-Care medium with 10% fetal bovine serum and 1% double antibody, 37° C. and 5% CO2 incubator. The cells were passaged by digestion with trypsin-EDTA twice a week. When the cells saturation reached 80-90%, and the quantity met the requirement, the cells was collected, counted and inoculated.
Tumor cell inoculation (tumor inoculation)
The subcutaneous implantation of the estrogen tablets (Innovative Research, Cat # SE-121, 0.36 mg/60-day release) was carried out one day before cell inoculation. 0.2 mL […] of BT-474 cells (with matrigel, volume 1:1) was subcutaneously inoculated into the right back of each mouse. When the average tumor volume reached 188 mm^3, the administration was started in groups.
Preparation of Test Substance […]
The experimental index was to evaluate whether the tumor growth was inhibited, delayed or cured. The diameter of the tumor was measured with a vernier caliper twice a week. […]
The antitumor efficacy of the compound was evaluated by TGI (%) or relative tumor proliferation rate T/C (%). […]
On the technique in general: Xenograft models place foreign cells or tissue in a host animal.

T1 sequence (P42336 whole entry): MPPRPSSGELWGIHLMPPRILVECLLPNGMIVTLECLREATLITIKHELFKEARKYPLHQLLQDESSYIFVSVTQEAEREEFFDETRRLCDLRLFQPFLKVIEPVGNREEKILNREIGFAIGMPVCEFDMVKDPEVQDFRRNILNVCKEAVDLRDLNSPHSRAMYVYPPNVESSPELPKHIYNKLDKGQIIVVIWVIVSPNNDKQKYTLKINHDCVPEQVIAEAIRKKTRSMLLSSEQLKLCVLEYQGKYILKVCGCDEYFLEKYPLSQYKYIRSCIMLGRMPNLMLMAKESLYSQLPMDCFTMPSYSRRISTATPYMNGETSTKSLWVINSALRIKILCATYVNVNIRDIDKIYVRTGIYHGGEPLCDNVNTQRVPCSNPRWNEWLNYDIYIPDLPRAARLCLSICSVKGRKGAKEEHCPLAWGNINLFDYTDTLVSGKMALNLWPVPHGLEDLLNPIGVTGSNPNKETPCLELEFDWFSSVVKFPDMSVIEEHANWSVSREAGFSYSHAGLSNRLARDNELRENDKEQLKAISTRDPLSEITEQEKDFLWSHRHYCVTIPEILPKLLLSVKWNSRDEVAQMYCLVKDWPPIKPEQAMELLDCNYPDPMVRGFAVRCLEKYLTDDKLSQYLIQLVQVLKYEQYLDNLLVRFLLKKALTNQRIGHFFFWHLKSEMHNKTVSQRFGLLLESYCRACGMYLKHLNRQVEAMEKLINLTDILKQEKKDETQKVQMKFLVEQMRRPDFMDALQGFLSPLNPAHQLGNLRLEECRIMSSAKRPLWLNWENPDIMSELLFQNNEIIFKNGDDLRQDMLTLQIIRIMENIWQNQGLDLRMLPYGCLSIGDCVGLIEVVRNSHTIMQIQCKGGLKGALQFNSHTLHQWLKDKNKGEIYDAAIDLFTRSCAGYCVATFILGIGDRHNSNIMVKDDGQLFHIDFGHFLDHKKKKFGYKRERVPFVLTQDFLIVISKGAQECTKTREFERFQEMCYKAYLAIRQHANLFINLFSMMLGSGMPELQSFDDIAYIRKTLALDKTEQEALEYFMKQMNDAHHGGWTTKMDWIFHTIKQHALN
T1 sequence (P27986 whole entry partner): as the sequence (P27986 whole entry partner) above

As to `COc1ncc(-c2ccc3ncn(CC(C)C(=O)NCC(F)(F)F)c(=O)c3c2)cc1NS(=O)(=O)c1ccc(F)cc1Cl` (single isomer, unassigned) [WX058], the concentration for half-maximal inhibition (IC50) came out at 5.49 nM against PI3Kα; 18.7 nM at PI3Kδ; 589 nM on PI3Kβ; 54.2 nM against PI3Kγ; 56.1 nM in assay [1]. Also, the TGI % in assay [2] amounted to 60.0%.
